From patent US12162872B2, “Cycloalkylurea derivative” (Sumitomo Pharma Co., Ltd., priority 2019, dated 2024)

The compounds below were run against T1, Human orexin receptor type 2 (Homo sapiens, UniProt O43614) (assay: Test 2: Evaluation of agonist activity for orexin receptor type 2 (aequorin luminescence, intracellular calcium mobilization in CHO cells)). Conditions: relative percentage of luminescence for the luminescence (100%) of Orexin A (100 pM); CHO cells transiently expressing human orexin receptor type 2 and apoaequorin; Orexin A Lot. 671009.
T1 construct: expressed in transfected cells; host or cells: CHO cells (transient expression)
T1 sequence (O43614 1-444): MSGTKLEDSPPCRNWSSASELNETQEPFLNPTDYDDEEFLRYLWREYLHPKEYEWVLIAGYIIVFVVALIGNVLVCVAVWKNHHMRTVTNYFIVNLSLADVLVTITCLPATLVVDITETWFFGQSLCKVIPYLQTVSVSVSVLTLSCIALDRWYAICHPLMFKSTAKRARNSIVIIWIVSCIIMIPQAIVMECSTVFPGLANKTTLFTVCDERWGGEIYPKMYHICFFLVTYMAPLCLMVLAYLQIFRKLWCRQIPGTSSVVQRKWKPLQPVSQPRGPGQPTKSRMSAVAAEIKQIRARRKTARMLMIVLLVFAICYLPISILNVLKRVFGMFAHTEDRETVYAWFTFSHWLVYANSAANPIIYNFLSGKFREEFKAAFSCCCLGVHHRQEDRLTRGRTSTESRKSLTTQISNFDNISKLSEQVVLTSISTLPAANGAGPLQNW
Assay type: cell-based
Procedure: Test 2: Evaluation of Agonist Activity for Orexin Receptor Type 2
Human orexin receptor type 2 and apoaequorin were transiently expressed in CHO cells, and the agonist activity was evaluated based on intracellular calcium mobilization with ligand stimulation. The CHO cells transiently-expressed human orexin receptor type 2 and apoaequorin were seeded on a 384-well plate by 2,000 cells/well, and then incubated for 16-22 hours. After the plate was returned to room temperature, Coelenterazine hcp (final concentration: 1 μM) was added to the plate, and the plate was allowed to stand at room temperature for 2 hours. And then, Orexin A (PEPTIDE INSTITUTE, INC., Lot. 671009) or each test compound was added to the plate, and the luminescence of the cells was measured with FDSS7000 (Hamamatsu Photonics K.K.), wherein Orexin A and each test compound were dissolved in DMSO (final concentration: 0.1%), and diluted with a buffer (Hanks, 20 mM HEPES, 0.1% BSA). The agonist activity of each test compound for orexin receptor type 2 was calculated as relative percentage of luminescence for the luminescence (100%) of Orexin A (100 pM).

agonist activity (%)	Compound
351	CC(C)N1CCN([C@H]2CCC[C@@H](F)[C@@H]2NC(=O)N2CCC(C)(c3noc(C4CC4)n3)CC2)CC1 (racemic) [Example 139, rac-4-(5-cyclopropyl-1,2,4-oxadiazol-3-yl)-N-{(1R,2R,6S)-2-fluoro-6-[4-(propan-2-yl)piperazin-1-yl]cyclohexyl}-4-methylpiperidine-1-carboxamide]
368	CC(C)N1CCN([C@H]2CCCCC[C@@H]2NC(=O)N2CCC(C)(c3noc(C4CC4)n3)CC2)CC1 (racemic) [Example 151, rac-4-(5-cyclopropyl-1,2,4-oxadiazol-3-yl)-4-methyl-N-{(1S,2S)-2-[4-(propan-2-yl)piperazin-1-yl]cycloheptyl}piperidine-1-carboxamide]
69	CC(C)N1CCN([C@@H]2CCCC(F)(F)[C@H]2NC(=O)N2CCC(C)(c3noc([C@H]4C[C@H]4F)n3)CC2)CC1 [Example 82, N-{(1S,6R)-2,2-difluoro-6-[4-(propan-2-yl)piperazin-1-yl]cyclohexyl}-4-{5-[(1R,2R)-2-fluorocyclopropyl]-1,2,4-oxadiazol-3-yl}-4-methylpiperidine-1-carboxamide]
371	CC(C)N1CCC(O[C@H]2CCCC(F)(F)[C@@H]2NC(=O)N2CCC(C)(c3noc([C@@H]4C[C@@H]4F)n3)CC2)CC1 [Example 83, N-[(1R,6S)-2,2-difluoro-6-{[1-(propan-2-yl)piperidin-4-yl]oxy}cyclohexyl]-4-{5-[(1S,2S)-2-fluorocyclopropyl]-1,2,4-oxadiazol-3-yl}-4-methylpiperidine-1-carboxamide]
372	CC(C)N1CCC(O[C@H]2CCCC(F)(F)[C@@H]2NC(=O)N2CCC(C)(c3noc(C4CC4)n3)CC2)CC1 [Example 84, 4-(5-cyclopropyl-1,2,4-oxadiazol-3-yl)-N-[(1R,6S)-2,2-difluoro-6-{[1-(propan-2-yl)piperidin-4-yl]oxy}cyclohexyl]-4-methylpiperidine-1-carboxamide]
360	CC(C)c1nc([C@H]2CCCC(F)(F)[C@@H]2NC(=O)N2CCC(C)(c3noc(C4CC4)n3)CC2)no1 [Example 85, 4-(5-cyclopropyl-1,2,4-oxadiazol-3-yl)-N-{(1R,6S)-2,2-difluoro-6-[5-(propan-2-yl)-1,2,4-oxadiazol-3-yl]cyclohexyl}-4-methylpiperidine-1-carboxamide]
367	CC(C)c1nc([C@H]2CCCC(F)(F)[C@@H]2NC(=O)N2CCC(C)(c3noc([C@@H]4C[C@@H]4F)n3)CC2)no1 [Example 86, N-{(1R,6S)-2,2-difluoro-6-[5-(propan-2-yl)-1,2,4-oxadiazol-3-yl]cyclohexyl}-4-{5-[(1S,2S)-2-fluorocyclopropyl]-1,2,4-oxadiazol-3-yl}-4-methylpiperidine-1-carboxamide]
226	CC(C)c1nsc(O[C@H]2CCCC(F)(F)[C@@H]2NC(=O)N2CCC(C)(c3noc([C@@H]4C[C@@H]4F)n3)CC2)n1 [Example 87, N-[(1R,6S)-2,2-difluoro-6-{[3-(propan-2-yl)-1,2,4-thiadiazol-5-yl]oxy}cyclohexyl]-4-{5-[(1S,2S)-2-fluorocyclopropyl]-1,2,4-oxadiazol-3-yl}-4-methylpiperidine-1-carboxamide]
201	CC(C)n1cc(O[C@H]2CCCC(F)(F)[C@@H]2NC(=O)N2CCC(C)(c3noc([C@@H]4C[C@@H]4F)n3)CC2)cn1 [Example 88, N-[(1R,6S)-2,2-difluoro-6-{[1-(propan-2-yl)-1H-pyrazol-4-yl]oxy}cyclohexyl]-4-{5-[(1S,2S)-2-fluorocyclopropyl]-1,2,4-oxadiazol-3-yl}-4-methylpiperidine-1-carboxamide]
0	CC(C)N1CC(O[C@H]2CCCC(F)(F)[C@@H]2NC(=O)N2CCC(C)(c3noc([C@@H]4C[C@@H]4F)n3)CC2)C1 [Example 89, N-[(1R,6S)-2,2-difluoro-6-{[1-(propan-2-yl)azetidin-3-yl]oxy}cyclohexyl]-4-{5-[(1S,2S)-2-fluorocyclopropyl]-1,2,4-oxadiazol-3-yl}-4-methylpiperidine-1-carboxamide]
112	CC(C)n1cc(O[C@H]2CCCC(F)(F)[C@@H]2NC(=O)N2CCC(C)(c3noc(C4CC4)n3)CC2)cn1 [Example 90, 4-(5-cyclopropyl-1,2,4-oxadiazol-3-yl)-N-[(1R,6S)-2,2-difluoro-6-{[1-(propan-2-yl)-1H-pyrazol-4-yl]oxy}cyclohexyl]-4-methylpiperidine-1-carboxamide]
243	CC(C)N1CC[C@H](N(Cc2ccccc2)[C@H]2CCCC(F)(F)[C@@H]2NC(=O)N2CCC(C)(c3noc([C@@H]4C[C@@H]4F)n3)CC2)C1 [Example 91, N-[(1R,6S)-6-{benzyl[(3S)-1-(propan-2-yl)pyrrolidin-3-yl]amino}-2,2-difluorocyclohexyl]-4-{5-[(1S,2S)-2-fluorocyclopropyl]-1,2,4-oxadiazol-3-yl}-4-methylpiperidine-1-carboxamide]
16	CC(C)c1nccc(O[C@H]2CCCC(F)(F)[C@@H]2NC(=O)N2CCC(C)(c3noc([C@@H]4C[C@@H]4F)n3)CC2)n1 [Example 92, N-[(1R,6S)-2,2-difluoro-6-{[2-(propan-2-yl)pyrimidin-4-yl]oxy}cyclohexyl]-4-{5-[(1S,2S)-2-fluorocyclopropyl]-1,2,4-oxadiazol-3-yl}-4-methylpiperidine-1-carboxamide]
365	CC(C)c1cn([C@H]2CCCC(F)(F)[C@@H]2NC(=O)N2CCC(C)(c3noc([C@@H]4C[C@@H]4F)n3)CC2)nn1 [Example 93, N-{(1R,6S)-2,2-difluoro-6-[4-(propan-2-yl)-1H-1,2,3-triazol-1-yl]cyclohexyl}-4-{5-[(1S,2S)-2-fluorocyclopropyl]-1,2,4-oxadiazol-3-yl}-4-methylpiperidine-1-carboxamide]
382	CC(C)Cc1cn([C@H]2CCCC(F)(F)[C@@H]2NC(=O)N2CCC(C)(c3noc([C@@H]4C[C@@H]4F)n3)CC2)nn1 [Example 94, N-{(1R,6S)-2,2-difluoro-6-[4-(2-methylpropyl)-1H-1,2,3-triazol-1-yl]cyclohexyl}-4-{5-[(1S,2S)-2-fluorocyclopropyl]-1,2,4-oxadiazol-3-yl}-4-methylpiperidine-1-carboxamide]
447	CC(C)N1CC[C@H](N(C)[C@H]2CCCC(F)(F)[C@@H]2NC(=O)N2CCC(C)(c3noc([C@@H]4C[C@@H]4F)n3)CC2)C1 [Example 95, N-[(1R,6S)-2,2-difluoro-6-{methyl[(3S)-1-(propan-2-yl)pyrrolidin-3-yl]amino}cyclohexyl]-4-{5-[(1S,2S)-2-fluorocyclopropyl]-1,2,4-oxadiazol-3-yl}-4-methylpiperidine-1-carboxamide]
493	CC(C)N(C)[C@H]1CCN([C@H]2CCCC(F)(F)[C@@H]2NC(=O)N2CCC(C)(c3noc([C@@H]4C[C@@H]4F)n3)CC2)C1 [Example 96, N-[(1R,6S)-2,2-difluoro-6-{(3S)-3-[methyl(propan-2-yl)amino]pyrrolidin-1-yl}cyclohexyl]-4-{5-[(1S,2S)-2-fluorocyclopropyl]-1,2,4-oxadiazol-3-yl}-4-methylpiperidine-1-carboxamide]
486	CC(C)N1CCN([C@H]2CCCC(F)(F)[C@@H]2NC(=O)N2CCC(C)(c3noc(C4CCC4)n3)CC2)CC1 [Example 97, 4-(5-cyclobutyl-1,2,4-oxadiazol-3-yl)-N-{(1R,6S)-2,2-difluoro-6-[4-(propan-2-yl)piperazin-1-yl]cyclohexyl}-4-methylpiperidine-1-carboxamide]
499	CC(C)N(C)[C@H]1CCN([C@H]2CCCC(F)(F)[C@@H]2NC(=O)N2CCC(C)(c3noc(C4CC4)n3)CC2)C1 [Example 99, 4-(5-cyclopropyl-1,2,4-oxadiazol-3-yl)-N-[(1R,6S)-2,2-difluoro-6-{(3S)-3-[methyl(propan-2-yl)amino]pyrrolidin-1-yl}cyclohexyl]-4-methylpiperidine-1-carboxamide]

Compound	agonist activity (%)
CC(C)N1[C@@H]2CC[C@H]1C[C@H](O[C@H]1CCCC(F)(F)[C@@H]1NC(=O)N1CCC(C)(c3noc([C@@H]4C[C@@H]4F)n3)CC1)C2 [Example 98, N-[(1R,6S)-2,2-difluoro-6-{[(1R,3S,5S)-8-(propan-2-yl)-8-azabicyclo[3.2.1]octan-3-yl]oxy}cyclohexyl]-4-{5-[(1S,2S)-2-fluorocyclopropyl]-1,2,4-oxadiazol-3-yl}-4-methylpiperidine-1-carboxamide]	271
